Laboratory results from patent US20240174659A1, “COMPOUNDS AND METHODS FOR YAP/TEAD MODULATION AND INDICATIONS THEREFOR” (Opna Bio SA, priority 2021, published 2024).

These molecules were tested on TEAD-dependent transcription (assay: Inhibitor activity against TEAD-dependent transcription in a cell-based reporter assay (MSTO-211H+12XGTIIC luciferase)). Conditions: Homo sapiens; MSTO-211H+12XGTIIC cells, 24 hours incubation, luciferase luminescence normalized to cell viability fluorescence, geometric mean; read-out: MSTO-211H GMean IC50 (uM) Cell Assay Reporter Cell Variant: TEAD.
Summary of the method: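 MSTO-211H mesothelioma cells stably carrying a 12xGTIIC TEAD-response-element luciferase reporter, treated with serial compound dilutions for 24 h at 37 °C. Luminescence normalized to CellTiter-Fluor viability signal; % inhibition versus DMSO and 20 μM K-975 controls, IC50 by nonlinear regression.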

SMILES | IC50
O=C(/C=C/CN1CCCC1)N1CCc2ccc(Oc3ccc(C(F)(F)F)cc3)cc2C1 [P-0118, (E)-4-(pyrrolidin-1-yl)-1-(7-(4-(trifluoromethyl)phenoxy)-3,4-dihydroisoquinolin-2(1H)-yl)but-2-en-1-one] | 0.5 to 20 µM
O=C(/C=C/Cn1ccnc1)N1CCc2ccc(Oc3ccc(C(F)(F)F)cc3)cc2C1 [P-0119, (E)-4-(1H-imidazol-1-yl)-1-(7-(4-(trifluoromethyl)phenoxy)-3,4-dihydroisoquinolin-2(1H)-yl)but-2-en-1-one] | 0.001 to 0.5 µM
O=C(/C=C/CN1CCOCC1)N1CCc2ccc(Oc3ccc(C(F)(F)F)cc3)cc2C1 [P-0120, (E)-4-morpholino-1-(7-(4-(trifluoromethyl)phenoxy)-3,4-dihydroisoquinolin-2(1H)-yl)but-2-en-1-one] | 0.5 to 20 µM
CN1CCN(C/C=C/C(=O)N2CCc3ccc(Oc4ccc(C(F)(F)F)cc4)cc3C2)CC1 [P-0121, (E)-4-(4-methylpiperazin-1-yl)-1-(7-(4-(trifluoromethyl)phenoxy)-3,4-dihydroisoquinolin-2(1H)-yl)but-2-en-1-one] | 0.5 to 20 µM
C=C(C)C(=O)N1CCc2ccc(Oc3ccc(C(F)(F)F)cc3)cc2C1 [P-0122, 2-methyl-1-(7-(4-(trifluoromethyl)phenoxy)-3,4-dihydroisoquinolin-2(1H)-yl)prop-2-en-1-one] | 0.5 to 20 µM
C/C=C/C(=O)N1CCc2ccc(Oc3ccc(C(F)(F)F)cc3)cc2C1 [P-0123, (E)-1-(7-(4-(trifluoromethyl)phenoxy)-3,4-dihydroisoquinolin-2(1H)-yl)but-2-en-1-one] | 0.001 to 0.5 µM
C=C(Cl)C(=O)N1CCc2ccc(Oc3ccc(C(F)(F)F)cc3)cc2C1 [P-0124, 2-chloro-1-(7-(4-(trifluoromethyl)phenoxy)-3,4-dihydroisoquinolin-2(1H)-yl)prop-2-en-1-one] | 0.001 to 0.5 µM
O=C(/C=C/Cl)N1CCc2ccc(Oc3ccc(C(F)(F)F)cc3)cc2C1 [P-0125, (E)-3-chloro-1-(7-(4-(trifluoromethyl)phenoxy)-3,4-dihydroisoquinolin-2(1H)-yl)prop-2-en-1-one] | 0.001 to 0.5 µM
C=C(CO)C(=O)N1CCc2ccc(Oc3ccc(C(F)(F)F)cc3)cc2C1 [P-0126, 2-(hydroxymethyl)-1-(7-(4-(trifluoromethyl)phenoxy)-3,4-dihydroisoquinolin-2(1H)-yl)prop-2-en-1-one] | 0.001 to 0.5 µM
C=C(C)S(=O)(=O)N1CCc2ccc(Oc3ccc(C(F)(F)F)cc3)cc2C1 [P-0127, 2-(prop-1-en-2-ylsulfonyl)-7-(4-(trifluoromethyl)phenoxy)-1,2,3,4-tetrahydroisoquinoline] | 0.001 to 0.5 µM
C=CC(=O)N1CCc2ccc(Oc3ccc(C(F)(F)F)cc3)cc2C1=O [P-0128, 2-acryloyl-7-(4-(trifluoromethyl)phenoxy)-3,4-dihydroisoquinolin-1(2H)-one] | 0.001 to 0.5 µM
C=CC(=O)N1CCc2ccc(OCc3ccc(F)c(F)c3)cc2C1 [P-0129, 1-(7-((3,4-difluorobenzyl)oxy)-3,4-dihydroisoquinolin-2(1H)-yl)prop-2-en-1-one] | > 20 µM
C=CC(=O)N1CCc2ccc(OCC3CCC(F)(F)C3)cc2C1 (stereo not shown) [P-0130, 1-(7-((3,3-difluorocyclopentyl)methoxy)-3,4-dihydroisoquinolin-2(1H)-yl)prop-2-en-1-one] | 0.001 to 0.5 µM
